Drawing on ChEMBL document CHEMBL2040848, “Synthesis and bioactivity evaluation of rhodanine derivatives as potential anti-bacterial agents” (2012), this text covers MIC for 10 compounds.

As usually defined, the MIC is the lowest concentration that inhibits growth of the organism. Low readings indicate inhibition by little substance, high ones a need for much substance.

Common to all, as to format: functional
For assay [1], the system named is Staphylococcus aureus. Description: Antibacterial activity against Staphylococcus aureus KCTC 503 after 24 hrs by two-fold serial dilution method. Particulars: KCTC 503, 24 h.
The subject of assay [2] is Staphylococcus aureus. Description: Antibacterial activity against Staphylococcus aureus KCTC 209 after 24 hrs by two-fold serial dilution method. Particulars: KCTC 209, 24 h.
The test system of assay [3] is Staphylococcus aureus. In words: Antibacterial activity against quinolone-resistant Staphylococcus aureus CCARM 3505 after 24 hrs by two-fold serial dilution method. To be noted: CCARM 3505, 24 h.
In assay [4] the test system is Staphylococcus aureus. Description: Antibacterial activity against methicillin-resistant Staphylococcus aureus CCARM 3167 after 24 hrs by two-fold serial dilution method. To be noted: CCARM 3167, 24 h.
The next assay concerns Escherichia coli. In words: Antibacterial activity against Escherichia coli 1356 after 24 hrs by two-fold serial dilution method. To be noted: Escherichia coli, 1356, 24 h.
Assay [5] deals with Staphylococcus aureus. Description: Antibacterial activity against methicillin-resistant Staphylococcus aureus CCARM 3506 after 24 hrs by two-fold serial dilution method. To be noted: CCARM 3506, 24 h.
For assay [6], the system named is Staphylococcus aureus. Description: Antibacterial activity against quinolone-resistant Staphylococcus aureus CCARM 3519 after 24 hrs by two-fold serial dilution method. Particulars: CCARM 3519, 24 h.
The subject of assay [7] is Staphylococcus aureus. In words: Antibacterial activity against Staphylococcus aureus KCTC 4220 after 24 hrs by two-fold serial dilution method. Particulars: KCTC 4220, 24 h.

Structures are written as SMILES. Values after ≈ are worked out from the molar mass of the structure shown. Some results are limits rather than exact numbers.

Take `O=C(COc1ccc(/C=C2\SC(=S)N([C@@H](Cc3ccccc3)C(=O)O)C2=O)cc1)c1cccc(Cl)c1`: the minimal inhibitory concentration (MIC) in the assay on Staphylococcus aureus [1] is 4 mg/L (≈ 7.43 µM); in the assay with Staphylococcus aureus [2], 4 mg/L (≈ 7.43 µM); against Staphylococcus aureus [3], 4 mg/L (≈ 7.43 µM); in the assay with Staphylococcus aureus [4], 4 mg/L (≈ 7.43 µM); with Escherichia coli, more than 64 mg/L; in the assay on Staphylococcus aureus [5], 4 mg/L (≈ 7.43 µM). In addition, the MIC in the assay with Staphylococcus aureus [6] was found to be 4 mg/L (≈ 7.43 µM); in the assay on Staphylococcus aureus [7] it was 8 mg/L (≈ 14.9 µM).

On to `O=C(COc1ccc(/C=C2\SC(=S)N([C@@H](Cc3ccccc3)C(=O)O)C2=O)cc1)c1ccccc1Cl`, for which the MIC was 8 mg/L (≈ 14.9 µM) against Staphylococcus aureus [1]; 8 mg/L (≈ 14.9 µM) in the assay on Staphylococcus aureus [2]; 4 mg/L (≈ 7.43 µM) against Staphylococcus aureus [3]; 4 mg/L (≈ 7.43 µM) with Staphylococcus aureus [4]; more than 64 mg/L in the assay on Escherichia coli; 4 mg/L (≈ 7.43 µM) against Staphylococcus aureus [5]. In addition, the MIC in the assay with Staphylococcus aureus [6] amounted to 4 mg/L (≈ 7.43 µM); in the assay with Staphylococcus aureus [7] it was 8 mg/L (≈ 14.9 µM).

Take `O=C(COc1ccc(/C=C2\SC(=S)N([C@@H](Cc3ccc(O)cc3)C(=O)O)C2=O)cc1)c1ccccc1Cl`: the minimal inhibitory concentration (MIC) was 8 mg/L (≈ 14.4 µM) in the assay with Staphylococcus aureus [1]; 16 mg/L (≈ 28.9 µM) against Staphylococcus aureus [2]; 8 mg/L (≈ 14.4 µM) against Staphylococcus aureus [3]; 8 mg/L (≈ 14.4 µM) against Staphylococcus aureus [4]; more than 64 mg/L against Escherichia coli; 16 mg/L (≈ 28.9 µM) with Staphylococcus aureus [5]. In addition, the minimal inhibitory concentration (MIC) with Staphylococcus aureus [6] and against Staphylococcus aureus [7] was 16 mg/L (≈ 28.9 µM) throughout.

On to `O=C(COc1ccc(/C=C2\SC(=S)N([C@@H](Cc3ccc(O)cc3)C(=O)O)C2=O)cc1)c1cccc(Cl)c1`, for which the minimum inhibitory concentration (MIC) is 8 mg/L (≈ 14.4 µM) against Staphylococcus aureus [1]; 8 mg/L (≈ 14.4 µM) in the assay on Staphylococcus aureus [2]; 8 mg/L (≈ 14.4 µM) against Staphylococcus aureus [3]; 8 mg/L (≈ 14.4 µM) against Staphylococcus aureus [4]; more than 64 mg/L in the assay on Escherichia coli; 8 mg/L (≈ 14.4 µM) against Staphylococcus aureus [5]. Moreover, the MIC in the assay with Staphylococcus aureus [6] and in the assay with Staphylococcus aureus [7] was 8 mg/L (≈ 14.4 µM) in each case.

As to `O=C(COc1ccc(/C=C2\SC(=S)N([C@@H](Cc3ccc(O)cc3)C(=O)O)C2=O)cc1)c1ccccc1`, the MIC is 32 mg/L (≈ 61.6 µM) against Staphylococcus aureus [1]; 32 mg/L (≈ 61.6 µM) in the assay with Staphylococcus aureus [2]; 32 mg/L (≈ 61.6 µM) in the assay on Staphylococcus aureus [3]; 32 mg/L (≈ 61.6 µM) in the assay with Staphylococcus aureus [4]; more than 64 mg/L against Escherichia coli; 32 mg/L (≈ 61.6 µM) against Staphylococcus aureus [5]. Besides, the MIC against Staphylococcus aureus [6] and against Staphylococcus aureus [7] was 32 mg/L (≈ 61.6 µM) in each case.

In the case of `O=C(COc1ccc(/C=C2\SC(=S)N([C@@H](Cc3ccccc3)C(=O)O)C2=O)cc1)c1ccc(Cl)cc1`, the MIC in the assay on Staphylococcus aureus [1] was 8 mg/L (≈ 14.9 µM); against Staphylococcus aureus [2], 4 mg/L (≈ 7.43 µM); against Staphylococcus aureus [3], 4 mg/L (≈ 7.43 µM); against Staphylococcus aureus [4], 4 mg/L (≈ 7.43 µM); against Escherichia coli, more than 64 mg/L; with Staphylococcus aureus [5], 4 mg/L (≈ 7.43 µM). The MIC against Staphylococcus aureus [6] and against Staphylococcus aureus [7] was 4 mg/L (≈ 7.43 µM) in each case.

Consider `O=C(COc1ccc(/C=C2\SC(=S)N([C@@H](Cc3ccccc3)C(=O)O)C2=O)cc1)c1ccc(Cl)cc1Cl`, for which the MIC was 8 mg/L (≈ 14 µM) against Staphylococcus aureus [1]; 8 mg/L (≈ 14 µM) against Staphylococcus aureus [2]; 8 mg/L (≈ 14 µM) against Staphylococcus aureus [3]; 8 mg/L (≈ 14 µM) against Staphylococcus aureus [4]; more than 64 mg/L against Escherichia coli; 8 mg/L (≈ 14 µM) in the assay on Staphylococcus aureus [5]. In addition, the MIC with Staphylococcus aureus [6] and against Staphylococcus aureus [7] was 8 mg/L (≈ 14 µM) each time.

Consider `COc1ccccc1C(=O)COc1ccc(/C=C2\SC(=S)N([C@@H](Cc3ccc(O)cc3)C(=O)O)C2=O)cc1`, for which the MIC in the assay with Staphylococcus aureus [1] is 8 mg/L (≈ 14.6 µM); in the assay on Staphylococcus aureus [2], 8 mg/L (≈ 14.6 µM); in the assay on Staphylococcus aureus [3], 8 mg/L (≈ 14.6 µM); in the assay with Staphylococcus aureus [4], 8 mg/L (≈ 14.6 µM); against Escherichia coli, more than 64 mg/L; against Staphylococcus aureus [5], 8 mg/L (≈ 14.6 µM). For the same compound, the minimum inhibitory concentration (MIC) in the assay with Staphylococcus aureus [6] came out at 8 mg/L (≈ 14.6 µM); against Staphylococcus aureus [7], 32 mg/L (≈ 58.2 µM).

As to `COc1ccccc1C(=O)COc1ccc(/C=C2\SC(=S)N([C@@H](Cc3c[nH]c4ccccc34)C(=O)O)C2=O)cc1`, the minimum inhibitory concentration (MIC) against Staphylococcus aureus [1] is 8 mg/L (≈ 14 µM); against Staphylococcus aureus [2] it was 8 mg/L (≈ 14 µM); in the assay with Staphylococcus aureus [3], 8 mg/L (≈ 14 µM); in the assay on Staphylococcus aureus [4], 8 mg/L (≈ 14 µM); in the assay with Escherichia coli, more than 64 mg/L; in the assay on Staphylococcus aureus [5], 8 mg/L (≈ 14 µM). The minimal inhibitory concentration (MIC) with Staphylococcus aureus [6] and in the assay with Staphylococcus aureus [7] was 8 mg/L (≈ 14 µM) each time.

Turning to `O=C(COc1ccc(/C=C2\SC(=S)N([C@@H](Cc3ccc(O)cc3)C(=O)O)C2=O)cc1)c1ccccc1Br`, the minimum inhibitory concentration (MIC) is 16 mg/L (≈ 26.7 µM) in the assay on Staphylococcus aureus [1]; 16 mg/L (≈ 26.7 µM) in the assay with Staphylococcus aureus [2]; 16 mg/L (≈ 26.7 µM) in the assay with Staphylococcus aureus [3]; 16 mg/L (≈ 26.7 µM) with Staphylococcus aureus [4]; more than 64 mg/L with Escherichia coli; 32 mg/L (≈ 53.5 µM) in the assay with Staphylococcus aureus [5]. Further, the MIC in the assay with Staphylococcus aureus [6] and in the assay with Staphylococcus aureus [7] was 32 mg/L (≈ 53.5 µM) each time.
